Measurements taken from US20060018825A1, “Probe for diseases with amyloid accumulation, amyloid-staining agent, remedy and preventive for diseases with amyloid accumulation and diagnostic probe and staining agent for neurofibrillary change” (BF RESEARCH INSTITUTE, INC., priority 2003, published 2006).
“Also recorded” adds a separate entry of the source.

System: not listed separately
Test: Clearance from the brain
Conditions: in vivo

clearance from the brain	Compound
rapid clearance from the brain	CN(C)c1ncc(/C=C/c2nc3ccc(OCCF)cc3o2)s1 [BF-227, 2-[2-(2-dimethylaminothiazol-5-yl)ethenyl]-6-(2-fluoroethyloxy)benzoxazole]

System: not listed separately
Test: Blood-brain barrier permeability after intravenous administration
Type: in vivo
Conditions: Slc:ICR, mouse, not told; mice, two minutes after intravenous administration; read-out: content in Brain (blood-brain barrier permeability)
Text: (B) Testing of Blood-Brain Barrier Permeability

Compound	tissue uptake at 2 min
CNc1ccc(/C=C/C=C/c2nc3ccccc3s2)cc1 [BF-187, 2-[[4-(4-methylamino)phenyl]-1,3-butadienyl)benzothiazole]	3.6 %ID/g
CNc1ccc(/C=C/C=C/c2nc3ccccc3[nH]2)cc1 [BF-188, 2-[[4-(4-methylamino)phenyl]1,3-butadienyl]benzoimidazole]	4.8 %ID/g
CNc1ccc(/C=C/C=C/c2nc3ccccc3o2)cc1 [BF-185, 2-[[4-(4-methylamino)phenyl]-1,3-butadienyl)benzoxazole]	3.9 %ID/g

System: neurofibrillary tangles (tau protein) in brain sections
Test: Neurofibrillary tangles staining in brain sections of an Alzheimer's disease patient
Set-up: species or system human
Conditions: adjacent section immunostained with pSer422 (FIG. 18)
Text: (§1) The following explanation is made about testing of staining properties of the compounds of the present invention on brain sections of an Alzheimer's disease patient.
(§2) (1) Temporal lobe or hippocampus specimens of the brain of a patient who had been definitely diagnosed pathologically as Alzheimer's disease and of a normal aged individual were used. These specimens were provided from Fukushimura Hospital, our joint research facility, with the consent to their use for research purpose received from the bereaved family of the patient (BF Research Laboratories Institutional Ethics Board Permission No. RS-99-02).
(§3) (2) The brain tissues embedded in paraffin were sliced 6 or 8 μm thick, extended on slides, and dried. The paraffin-embedded brain sections were deparaffined by washing sequentially with xylene (10 minutes, twice), 100% ethanol (15 minutes, twice), 95% ethanol (15 minutes, twice), and a stream of water (10 minutes).
(§4) (3) Pre-treatment for staining with compounds of the present invention involved treating the sections for eliminating self-fluorescence due to lipofuscin. First, the deparaffined sections were immersed into a 10% formalin solution for 60 minutes and washed with PBS for 5 minutes, followed by immersion into a 0.25% solution of KMnO4 for 90 minutes. After washing twice with PBS for 2 minutes each, the sections were immersed into a solution of 0.1% K2S2O5/oxalic acid for about 30 seconds each, and then washed three times with PBS for 2 minutes each.
(§5) (4) About 150 μl of a 100 μM solution of a compound of the present invention dissolved in 50% ethanol was added dropwise onto the sections and allowed the reaction to be carried out for 10 minutes. The sections were dipped into tap water five times, and then 50% ethanol three to five times, followed by immediate classification. After that, the sections were immersed into PBS for 60 minutes, enclosed with Fluor Save Reagent (Calbiochem), and examined under a fluorescent microscope (Nikon, Eclips E800) . Pictures were taken using a digital camera (Plaroid PDMCII).
(b) Procedures for Immunostaining Neurofibrillary Tangles:
(1) Immunostaining of neurofibrillary tangles was carried out as follows. After the sections were deparaffined, the sections were washed twice with distilled water for 2 minutes each, tissues were marked with an Immunopen. About 150 μl of 3% hydrogen peroxide (diluted in methanol) was added dropwise and allowed to stand at room temperature for 10 minutes.
(2) The sections were washed twice with cold PBS-Tween 20 for 5 minutes each, and two drops of blocking serum were added and allowed the reaction to be carried out at 37° C. for 30 minutes. Excess water was removed, and two drops of pSer422, an antibody specific to phosphorylated tau (Wako Phosphorylated Tau Immunohistostain Kit 299-57301) and allowed the reaction to be carried out overnight at 4° C.
(3) On the next day, the sections were washed five times with cold PBS-Tween 20 for 2 minutes each, and two drops of a solution of goat anti-rabbit IgG conjugated to biotin were added and allowed the reaction to be carried out at 37° C. for 1 hour. After that, the sections were washed three times with cold PBS-Tween 20 for 2 minutes each, and two drops of ABS solution (a streptavidin-biotin-peroxidase complex solution) were added and allowed to stand for 30 minutes.
(4) The sections were again washed three times with cold PBS-Tween 20 for 2 minutes each, and about 150 μl of DAB solution (prepared by dissolving 10 mg of DAB in 20 ml of 0.05 mol/l Tris-HCl buffer and adding 100 μl of 3% hydrogen peroxide immediately before use) were added and allowed the color to be developed sufficiently. Then, the sections were washed with distilled water for 1 minute to stop the reaction, enclosed, and examined under a microscope. The blocking serum, the solution of goat anti-rabbit IgG conjugated to biotin, and the ABC solution used were those contained in a Phosphorylated Tau Immunohistostain Kit (Wako 299-57301).

Compound	staining of phosphorylated tau protein recognized by antibody pSer422
CN(C)c1ncc(-c2ccc3ccccc3n2)o1 [BF-221, 2-(2-dimethylaminooxazol-5-yl)quinoline]	stained phosphorylated tau protein

Same assay, conditions: compared with thioflavin S (FIG. 17)

Compound	specificity of staining to tau protein / neurofibrillary tangles
Nc1cnc(-c2ccc3ccccc3n2)o1 [BF-255]	high selectivity to neurofibrillary tangles
Nc1ncc(-c2ccc3ccccc3n2)o1 [BF-239, 2-(2-aminooxazol-5-yl)quinoline]	high selectivity to neurofibrillary tangles
Nc1ncc(-c2ccc3ccccc3n2)s1 [BF-240, 2-(2-aminothiazol-5-yl)quinoline]	high selectivity to neurofibrillary tangles
thioflavin S [reference compound]	provided enough staining of proteins other than tau protein
CN(C)c1ncc(-c2ccc3ccccc3n2)o1 [BF-221, 2-(2-dimethylaminooxazol-5-yl)quinoline]	high specificity to tau protein

System: senile plaques and diffuse plaques (amyloid β-protein) in brain sections
Test: Staining of senile plaques and diffuse plaques in brain sections of an Alzheimer's disease patient
Set-up: species or system human
Conditions: 100 μM compound in 50% ethanol; compared with thioflavin S or anti-Aβ antibody 6F/3D on adjacent section
Text: as §1, §2, §3, §4, §5
Immunostaining was carried out as follows.
(a) Procedures for Immunostaining Amyloid β-Protein:
(1) After the sections were deparaffined, the sections were washed twice in distilled water for 2 minutes each, and tissues were marked with an Immunopen. About 150 μl of formic acid was added dropwise and allowed to stand at room temperature for 5 minutes. The sections were washed with tap water for 5 minutes and immersed into cold PBS-Tween 20 for 2 minutes, and then about 150 μl of a 0.05% trypsin solution was added dropwise and allowed the reaction to be carried out at 37° C. for 15 minutes.
(2) In an ice bath, the sections were washed twice with cold PBS-Tween 20 for 5 minutes each, and two drops of blocking serum were added and allowed the reaction to be carried out at 37° C. for 15 minutes. Excess water was removed, and about 150 μl of 6F/3D, an antibody specific to amyloid β-protein (DAKO; diluted 1:50) was added dropwise and allowed the reaction to be carried out at 37° C. for 1 hour.
(3) Further, after washing five times with cold PBS-Tween 20 for 2 minutes each, two drops of a solution of goat anti-mouse IgG (H+L) conjugated to biotin were added and allowed the reaction to be carried out at 37° C. for 1 hour. After that, the sections were washed three times with cold PBS-Tween 20 for 2 minutes each, and two drops of ABS solution (a streptavidin-biotin-peroxidase complex solution) were added and allowed to stand for 30 minutes. The sections were again washed three times with cold PBS-Tween 20 for 2 minutes each, and about 150 μl of DAB solution (prepared by dissolving 10 mg of DAB in 20 ml of 0.05 mol/l Tris-HCl buffer and adding 100 μl of 3% hydrogen peroxide immediately before use) were added and allowed the color to be developed sufficiently. Then, the sections were washed with distilled water for 1 minute to stop the reaction, enclosed, and examined under a microscope.

Compound	staining properties in sections of the brain of a patient with Alzheimer's disease (senile plaques)
CN(C)c1ncc(/C=C/c2nc3ccc(OCCF)cc3o2)s1 [BF-227, 2-[2-(2-dimethylaminothiazol-5-yl)ethenyl]-6-(2-fluoroethyloxy)benzoxazole]	mainly stains senile plaques
CN(C)c1ncc(/C=C/c2nc3ccccc3o2)s1 [BF-197, 2-[2-(2-dimethylaminothiazol-5-yl)ethenyl]benzoxazole]	mainly stains senile plaques
CNc1ccc(/C=C/C=C/c2nc3ccccc3s2)cc1 [BF-187, 2-[[4-(4-methylamino)phenyl]-1,3-butadienyl)benzothiazole]	stains senile plaques
CNc1ccc(/C=C/C=C/C=C/c2ccc3ccccc3n2)cc1 [BF-189, 1-(4-methylaminophenyl)-6-(2-quinolyl)-1,3,5-hexatrien]	stains senile plaques
O=C(O)c1cc(/C=C/c2ccc(/C=C/c3ccc(O)c(C(=O)O)c3)c(Br)c2)ccc1O [BSB, reference compound]	stains both senile plaques and neurofibrillary tangles
Nc1ccc(/C=C/C=C/c2nc3ccc(O)cc3o2)c(O)c1 [BF-201]	stains senile plaques
CNc1ccc(/C=C/C=C/c2nc3ccccc3[nH]2)cc1 [BF-188, 2-[[4-(4-methylamino)phenyl]1,3-butadienyl]benzoimidazole]	stains senile plaques
CN(C)c1ncc(/C=C/c2nc3ccccc3s2)s1 [BF-196, 2-[2-(2-dimethylaminothiazol-5-yl)ethenyl]benzothiazole]	mainly stains senile plaques
CNc1ccc(/C=C/C=C/c2nc3ccccc3o2)cc1 [BF-185, 2-[[4-(4-methylamino)phenyl]-1,3-butadienyl)benzoxazole]	mainly stains senile plaques
thioflavin S [reference compound]	stains both senile plaques and neurofibrillary tangles
Cc1nc(/C=C/c2cnc(N(C)C)s2)oc1C [BF-214, 2-(dimethylamino)-5-[2-(4,5-dimethyloxazol-2-yl)ethenyl]thiazole]	stains senile plaques

Same assay, conditions: 100 μM compound; diffuse plaques stained with anti-Aβ antibody 6F/3D on adjacent section

Compound	staining of diffuse plaques in sections of the brain of a patient with Alzheimer's disease
CN(C)c1ncc(/C=C/c2nc3ccc(OCCF)cc3o2)s1 [BF-227, 2-[2-(2-dimethylaminothiazol-5-yl)ethenyl]-6-(2-fluoroethyloxy)benzoxazole]	stains; also recorded: display affinity also for diffuse plaques and provide their clear staining
CNc1ccc(/C=C/C=C/c2nc3ccccc3o2)cc1 [BF-185, 2-[[4-(4-methylamino)phenyl]-1,3-butadienyl)benzoxazole]	stains; also recorded: display affinity also for diffuse plaques and provide their clear staining

System: not listed separately
Test: Acute toxicity testing by intravenous administration
Type: in vivo
Conditions: male Crj:CD1 mice, observed up to 7 days
Protocol: (A) Testing of Acute Toxicity
Acute toxicity of the inventive compounds was determined employing mice by intravenous administration. Male Crj:CD1 mice were used and divided into groups of 4 mice, with an average weight of each group of 31-32 g. […] Up to 7 days after administration, observations were made.

Compound	Maximum Tolerated Dose
CNc1ccc(/C=C/C=C/c2nc3ccccc3s2)cc1 [BF-187, 2-[[4-(4-methylamino)phenyl]-1,3-butadienyl)benzothiazole]	≧10 mg/kg
CN(C)c1ncc(-c2nc3ccccc3o2)s1 [BF-225, 2-(2-dimethylaminothiazol-5-yl)benzoxazole]	≧10 mg/kg
CNc1ccc(/C=C/C=C/c2nc3ccccc3o2)cc1 [BF-185, 2-[[4-(4-methylamino)phenyl]-1,3-butadienyl)benzoxazole]	≧10 mg/kg

Same assay, conditions: mouse, in vivo, male Crj:CD1 mice, observed up to 7 days, read-out: Maximum Tolerated Dose

Compound	MTD at 7 days
Nc1ccc(/C=C/C=C/c2nc3ccc(O)cc3o2)c(O)c1 [BF-201]	≥ 10 mg/kg
